Patent US20250099405A1, “COMPOSITIONS, METHODS, AND DEVELOPMENT OF ARID4B INHIBITORS” (University of Kentucky Research Foundation, priority 2022, published 2025)

Tests used:
[1] = Plasma stability, incubation with mouse blood plasma, LC-MS; type: in vitro ADME; details: over the 24 h period, equivalent of 50 mg/kg
Procedure: Representative HE images of liver and spleen from mice treated with vehicle or ARD150. Images from vehicle and the highest doses of ARD150 (125 mg/kg) were shown (B). […] Three biological replicates for each time point.
The potential toxicity of RWR-18 was tested using 9-week-old Balb/c female mice. The mice were injected (i.p.) with vehicle or 10 mg/kg, 25 mg/kg, and 50 mg/kg of RWR-18 (daily for 7 days, 3 mice/group). The body weight was measured daily for 21 days. The liver, spleen, heart, lung, and kidney were collected for macroscopic and histological examination. […] Preliminary plasma kinetic studies were performed. Following the incubation of the equivalent of 50 mg/kg of RWR-18 with blood plasma from mice at 10 min, 30 min, 1 h, 4 h, 16 h, and 24 h, we measured the plasma levels of RWR-18 by LC-MS.

MCF7 xenograft = MCF7 xenograft model; type: in vivo, SCID mice; details: 25 mg/kg once every two days for 24 days
Procedure: The effects of RWR18 on tumor growth was determined using MCF7 xenograft model. When tumor in SCID mice reached 150-200 mm^3, mice were randomized to receive vehicle or RWR18 (25 mg/kg) once every two days for 24 days. […] Bar, 5 mm.
The effects of RWR18 on tumor growth was determined using MCF7 xenograft model. When tumor in SCID mice reaches 150-200 mm^3, mice were randomized to receive vehicle or RWR18 (25 mg/kg) once every two days for 24 days.
The effects of RWR18 on tumor growth was determined using MCF7 xenograft model. When tumor in SCID mice reached 150-200 mm^3, mice were randomized to receive vehicle or RWR18 (25 mg/kg) once every two days for 24 days.

[2] = biological target: T1, ARID4B binding to H3K4me3 (Homo sapiens, UniProt Q4LE39); assay: Histone peptide binding assay; details: His-ARID4B pre-incubated with compound
T1 construct: His; made in house; host or cells: Sf9
T1 sequence (Q4LE39 1-1312): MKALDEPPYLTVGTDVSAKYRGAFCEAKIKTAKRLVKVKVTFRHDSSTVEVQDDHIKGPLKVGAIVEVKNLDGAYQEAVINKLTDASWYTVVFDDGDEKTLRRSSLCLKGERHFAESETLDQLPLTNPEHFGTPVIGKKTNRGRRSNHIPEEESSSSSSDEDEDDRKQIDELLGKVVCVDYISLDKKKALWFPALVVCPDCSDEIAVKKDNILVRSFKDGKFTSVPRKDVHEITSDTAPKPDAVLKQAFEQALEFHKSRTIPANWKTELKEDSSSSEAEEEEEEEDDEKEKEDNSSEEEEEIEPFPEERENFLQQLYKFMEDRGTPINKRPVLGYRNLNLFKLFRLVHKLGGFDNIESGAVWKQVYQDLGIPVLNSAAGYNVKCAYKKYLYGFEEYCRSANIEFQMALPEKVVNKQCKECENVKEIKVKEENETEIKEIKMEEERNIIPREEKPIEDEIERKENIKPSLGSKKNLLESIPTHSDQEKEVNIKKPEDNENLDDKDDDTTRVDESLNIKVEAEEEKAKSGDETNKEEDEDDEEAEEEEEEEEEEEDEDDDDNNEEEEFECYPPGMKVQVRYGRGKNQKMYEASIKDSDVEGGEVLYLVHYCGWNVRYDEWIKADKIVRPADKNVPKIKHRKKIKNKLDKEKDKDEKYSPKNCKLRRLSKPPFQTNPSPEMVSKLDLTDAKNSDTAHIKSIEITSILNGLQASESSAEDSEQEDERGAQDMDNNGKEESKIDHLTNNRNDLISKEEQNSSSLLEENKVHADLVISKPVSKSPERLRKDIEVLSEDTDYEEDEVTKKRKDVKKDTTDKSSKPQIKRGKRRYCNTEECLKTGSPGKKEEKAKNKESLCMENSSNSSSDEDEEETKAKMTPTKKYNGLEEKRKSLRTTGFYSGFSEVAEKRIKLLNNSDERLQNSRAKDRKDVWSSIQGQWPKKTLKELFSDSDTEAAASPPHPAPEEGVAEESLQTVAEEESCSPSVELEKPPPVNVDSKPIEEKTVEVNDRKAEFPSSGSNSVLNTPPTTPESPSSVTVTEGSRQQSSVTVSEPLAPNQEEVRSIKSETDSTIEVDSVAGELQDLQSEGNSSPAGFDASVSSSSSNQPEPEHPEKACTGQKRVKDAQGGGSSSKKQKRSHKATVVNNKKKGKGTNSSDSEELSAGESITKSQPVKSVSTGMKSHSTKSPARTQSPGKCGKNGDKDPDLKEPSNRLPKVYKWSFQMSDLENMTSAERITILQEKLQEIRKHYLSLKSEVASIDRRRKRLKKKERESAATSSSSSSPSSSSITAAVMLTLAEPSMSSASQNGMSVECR
Procedure: His-ARID4B was pre-incubated with RWR-18 as indicated followed by histone peptide binding assays.
Histone peptide binding assays were used to determine that ARID4B binds to which methylated lysine. Full-length His-ARID4B and deletion mutants expressed in Sf9 were purified by Ni-NTA affinity resin (FIG. 20A). To determine which methylated lysine ARID4B binds, full-length His-ARID4B was incubated with biotinylated histone H3 peptides tri-methylated at the K4, K9, K27, K36 or K79. The corresponding unmethylated H3 peptides were used as controls ([…]). […] Next, the ARID4B deletion mutants were used to determine domain(s) of ARID4B responsible for binding to H3K4me3. Deletion of Tudor and chromo domains impaired binding to H3K4me3 (FIG. 20C, compare lanes 3, 4, and 7).
Since RWR-18 targets the chromodomain of ARID4B, which is important for binding to H3K4me3 (FIG. 20), it was tested whether RWR-18 interferes with binding of H3K4me3 using histone peptide binding assays as described above.

reduction in peak area in mouse blood plasma [1]: ~20% | binding of ARID4B to H3K4me3 [2]: inhibited
Structure (SMILES): O=C(COc1ccc(OCc2ccccc2)cc1)NCCCN1CCOCC1 [RWR-18]
tumor growth (MCF7 xenograft): inhibited tumor growth | percentage of apoptotic cells in tumors (MCF7 xenograft; versus vehicle): increases
